Measurements reported in US10004701B2, “Methods and compositions for treating infection” (UNIVERSITY OF ROCHESTER, priority 2012, dated 2018).
Structures can show the parent of a compound that is named as a salt. Where two headings read alike, the source gives them in different places.

Experiments:
Assay in all cases: AK assay 384-well format, Prestwick library screening
E. faecium = format: cell-based, Enterococcus faecium; settings: 50 μM final drug concentration; for fold induction at 50 µM: Enterococcus faecium, 3 h
[1] = system: S. aureus strain USA300-0114; format: cell-based, Staphylococcus aureus; settings: 50 μM final drug concentration; for fold induction at 50 µM: Staphylococcus aureus, USA300, 3 h
K. pneumoniae = format: cell-based, Klebsiella pneumoniae; settings: 50 μM final drug concentration; for fold induction at 50 µM: Klebsiella pneumoniae, 3 h
[2] = system: A. baumannii strain 98-37-09; format: cell-based, Acinetobacter baumannii; settings: 50 μM final drug concentration; for fold induction at 50 µM: Acinetobacter baumannii, 983709, 3 h
P. aeruginosa = format: cell-based, Pseudomonas aeruginosa; settings: 50 μM final drug concentration; for fold induction at 50 µM: Pseudomonas aeruginosa, 3 h
E. cloacae = format: cell-based, Enterobacter cloacae; settings: 50 μM final drug concentration; for fold induction at 50 µM: Enterobacter cloacae, 3 h
E. coli = format: cell-based, Escherichia coli; settings: 50 μM final drug concentration; for fold induction at 50 µM: Escherichia coli, 3 h
[3] = planktonic E. faecium, positive cutoff 3-fold increase, read-out: AK-based Prestwick library screening result, E. faecium (fold increase in extracellular AK activity)
[4] = planktonic S. aureus, positive cutoff 3-fold increase, read-out: AK-based Prestwick library screening result, S. aureus (fold increase in extracellular AK activity)
[5] = planktonic K. pneumoniae, positive cutoff 3-fold increase, read-out: AK-based Prestwick library screening result, K. pneumoniae (fold increase in extracellular AK activity)
[6] = planktonic A. baumannii, positive cutoff 3-fold increase, read-out: AK-based Prestwick library screening result, A. baumannii (fold increase in extracellular AK activity)
[7] = planktonic P. aeruginosa, positive cutoff 3-fold increase, read-out: AK-based Prestwick library screening result, P. aeruginosa (fold increase in extracellular AK activity)
[8] = planktonic E. cloacae, positive cutoff 3-fold increase, read-out: AK-based Prestwick library screening result, E. cloacae (fold increase in extracellular AK activity)
[9] = planktonic E. coli, positive cutoff 3-fold increase, read-out: AK-based Prestwick library screening result, E. coli (fold increase in extracellular AK activity)

O=c1[nH]c(=O)n([C@H]2C[C@H](O)[C@@H](CO)O2)cc1I [Idoxuridine]
fold induction at 50 µM (E. faecium; 384-well format, cutoff for positive-scoring molecules 3-fold increase, read-out: AK-based Prestwick Library Screening Results, E. faecium (increase in extracellular AK activity)): 1 | fold induction at 50 µM ([1]; 384-well format, cutoff for positive-scoring molecules 3-fold increase, read-out: AK-based Prestwick Library Screening Results, S. aureus (increase in extracellular AK activity)): 0.7 | fold induction at 50 µM (K. pneumoniae; 384-well format, cutoff for positive-scoring molecules 3-fold increase, read-out: AK-based Prestwick Library Screening Results, K. pneumoniae (increase in extracellular AK activity)): 0.6 | fold induction at 50 µM ([2]; 384-well format, cutoff for positive-scoring molecules 3-fold increase, read-out: AK-based Prestwick Library Screening Results, A. baumannii (increase in extracellular AK activity)): 0.7 | fold induction at 50 µM (P. aeruginosa; 384-well format, cutoff for positive-scoring molecules 3-fold increase, read-out: AK-based Prestwick Library Screening Results, P. aeruginosa (increase in extracellular AK activity)): 0.6 | fold induction at 50 µM (E. cloacae; 384-well format, cutoff for positive-scoring molecules 3-fold increase, read-out: AK-based Prestwick Library Screening Results, E. cloacae (increase in extracellular AK activity)): 0.8 | fold induction at 50 µM (E. coli; 384-well format, cutoff for positive-scoring molecules 3-fold increase, read-out: AK-based Prestwick Library Screening Results, E. coli (increase in extracellular AK activity)): 0.7

CN1CCC(=C2c3ccccc3Sc3ccccc32)CC1 [Pimethixene maleate]
fold induction at 50 µM (E. faecium; planktonic E. faecium, 384-well, […], read-out: AK-based Prestwick Library Screening Results: E. faecium (increase in extracellular AK activity)): 1.1 | fold induction at 50 µM ([1]; planktonic S. aureus, 384-well, […], read-out: AK-based Prestwick Library Screening Results: S. aureus (increase in extracellular AK activity)): 0.9 | fold induction at 50 µM (K. pneumoniae; planktonic K. pneumoniae, 384-well, […], read-out: AK-based Prestwick Library Screening Results: K. pneumoniae (increase in extracellular AK activity)): 1.2 | fold induction at 50 µM ([2]; planktonic A. baumannii, 384-well, […], read-out: AK-based Prestwick Library Screening Results: A. baumannii (increase in extracellular AK activity)): 1.1 | fold induction at 50 µM (P. aeruginosa; planktonic P. aeruginosa, 384-well, […], read-out: AK-based Prestwick Library Screening Results: P. aeruginosa (increase in extracellular AK activity)): 1.1 | fold induction at 50 µM (E. cloacae; planktonic E. cloacae, 384-well, […], read-out: AK-based Prestwick Library Screening Results: E. cloacae (increase in extracellular AK activity)): 1.4 | fold induction at 50 µM (E. coli; planktonic E. coli, 384-well, […], read-out: AK-based Prestwick Library Screening Results: E. coli (increase in extracellular AK activity)): 1.4

CCOC(=O)[C@H](CCc1ccccc1)N[C@@H](C)C(=O)N1[C@H](C(=O)O)C[C@@H]2CCC[C@@H]21 [Ramipril]
fold induction at 50 µM (E. faecium; [3]): 1 | fold induction at 50 µM [1, 4]: 1.2 | fold induction at 50 µM (K. pneumoniae; [5]): 1 | fold induction at 50 µM [2, 6]: 1.3 | fold induction at 50 µM (P. aeruginosa; [7]): 1.2 | fold induction at 50 µM (E. cloacae; [8]): 1.1 | fold induction at 50 µM (E. coli; [9]): 1.1

CO[C@H]1/C=C/O[C@@]2(C)Oc3c(C)c(O)c4c(c3C2=O)C2=NC3(CCN(CC(C)C)CC3)NC2=C(NC(=O)/C(C)=C\C=C\[C@H](C)[C@H](O)[C@@H](C)[C@@H](O)[C@@H](C)[C@H](OC(C)=O)[C@@H]1C)C4=O [Rifabutin]
fold induction at 50 µM (E. faecium; [3]): 1.2 | fold induction at 50 µM [1, 4]: 0.7 | fold induction at 50 µM (K. pneumoniae; [5]): 1.3 | fold induction at 50 µM [2, 6]: 3.3 | fold induction at 50 µM (P. aeruginosa; [7]): 0.6 | fold induction at 50 µM (E. cloacae; [8]): 1.6 | fold induction at 50 µM (E. coli; [9]): 1.3

COC1=C[C@@H]2C3=C([C@@H]2C1=O)[C@@H](NC(C)=O)CCc1cc(OC)c(OC)c(OC)c13 [Lumicolchicine gamma]
AK-based Prestwick Library Screening Results, E. faecium (fold increase in extracellular AK activity) (E. faecium; planktonic, […]): 1.0 | AK-based Prestwick Library Screening Results, S. aureus (fold increase in extracellular AK activity) ([1]; planktonic, […]): 0.9 | AK-based Prestwick Library Screening Results, K. pneumoniae (fold increase in extracellular AK activity) (K. pneumoniae; planktonic, […]): 1.0 | AK-based Prestwick Library Screening Results, A. baumannii (fold increase in extracellular AK activity) ([2]; planktonic, […]): 1.2 | AK-based Prestwick Library Screening Results, P. aeruginosa (fold increase in extracellular AK activity) (P. aeruginosa; planktonic, […]): 1.1 | AK-based Prestwick Library Screening Results, E. cloacae (fold increase in extracellular AK activity) (E. cloacae; planktonic, […]): 1.4 | AK-based Prestwick Library Screening Results, E. coli (fold increase in extracellular AK activity) (E. coli; planktonic, […]): 1.1

NC(=O)N/N=C/c1ccc([N+](=O)[O-])o1 [Nitrofural]
fold induction at 50 µM (E. faecium; planktonic E. faecium, cutoff for positive-scoring molecules 3-fold increase, read-out: AK-based Prestwick Library Screening Results, E. faecium (increase in extracellular AK activity)): 1 | fold induction at 50 µM ([1]; planktonic S. aureus, cutoff for positive-scoring molecules 3-fold increase, read-out: AK-based Prestwick Library Screening Results, S. aureus (increase in extracellular AK activity)): 0.5 | fold induction at 50 µM (K. pneumoniae; planktonic K. pneumoniae, cutoff for positive-scoring molecules 3-fold increase, read-out: AK-based Prestwick Library Screening Results, K. pneumoniae (increase in extracellular AK activity)): 0.2 | fold induction at 50 µM ([2]; planktonic A. baumannii, cutoff for positive-scoring molecules 3-fold increase, read-out: AK-based Prestwick Library Screening Results, A. baumannii (increase in extracellular AK activity)): 1 | fold induction at 50 µM (P. aeruginosa; planktonic P. aeruginosa, cutoff for positive-scoring molecules 3-fold increase, read-out: AK-based Prestwick Library Screening Results, P. aeruginosa (increase in extracellular AK activity)): 0.8 | fold induction at 50 µM (E. cloacae; planktonic E. cloacae, cutoff for positive-scoring molecules 3-fold increase, read-out: AK-based Prestwick Library Screening Results, E. cloacae (increase in extracellular AK activity)): 0.8 | fold induction at 50 µM (E. coli; planktonic E. coli, cutoff for positive-scoring molecules 3-fold increase, read-out: AK-based Prestwick Library Screening Results, E. coli (increase in extracellular AK activity)): 0.7

Oc1c(I)cc(Cl)c2cccnc12 [Clioquinol]
fold induction at 50 µM (E. faecium; planktonic, cutoff for positive-scoring molecules 3-fold increase, read-out: AK-based Prestwick Library Screening Results, E. faecium (fold increase in extracellular AK activity)): 0.9 | fold induction at 50 µM ([1]; planktonic, cutoff for positive-scoring molecules 3-fold increase, read-out: AK-based Prestwick Library Screening Results, S. aureus (fold increase in extracellular AK activity)): 0.2 | fold induction at 50 µM (K. pneumoniae; planktonic, cutoff for positive-scoring molecules 3-fold increase, read-out: AK-based Prestwick Library Screening Results, K. pneumoniae (fold increase in extracellular AK activity)): 0.6 | fold induction at 50 µM ([2]; planktonic, cutoff for positive-scoring molecules 3-fold increase, read-out: AK-based Prestwick Library Screening Results, A. baumannii (fold increase in extracellular AK activity)): 1.1 | fold induction at 50 µM (P. aeruginosa; planktonic, cutoff for positive-scoring molecules 3-fold increase, read-out: AK-based Prestwick Library Screening Results, P. aeruginosa (fold increase in extracellular AK activity)): 0.4 | fold induction at 50 µM (E. cloacae; planktonic, cutoff for positive-scoring molecules 3-fold increase, read-out: AK-based Prestwick Library Screening Results, E. cloacae (fold increase in extracellular AK activity)): 0.5 | fold induction at 50 µM (E. coli; planktonic, cutoff for positive-scoring molecules 3-fold increase, read-out: AK-based Prestwick Library Screening Results, E. coli (fold increase in extracellular AK activity)): 0.5

C[C@]12CC[C@@H]3c4ccc(O)cc4CC[C@H]3[C@@H]1C[C@@H](O)[C@@H]2O [Estriol]
fold induction at 50 µM (E. faecium; [3]): 1.1 | fold induction at 50 µM [1, 4]: 1.2 | fold induction at 50 µM (K. pneumoniae; [5]): 0.8 | fold induction at 50 µM [2, 6]: 1.2 | fold induction at 50 µM (P. aeruginosa; [7]): 1 | fold induction at 50 µM (E. cloacae; [8]): 1.4 | fold induction at 50 µM (E. coli; [9]): 1.1

CCN(CC)CC(=O)Nc1c(C)cccc1C [Lidocaine hydrochloride]
fold induction at 50 µM (E. faecium; planktonic E. faecium, 384-well, cutoff for positive-scoring molecules 3-fold increase, read-out: AK-based Prestwick Library Screening Results: E. faecium (increase in extracellular AK activity)): 1.2 | fold induction at 50 µM ([1]; planktonic S. aureus, 384-well, cutoff for positive-scoring molecules 3-fold increase, read-out: AK-based Prestwick Library Screening Results: S. aureus (increase in extracellular AK activity)): 1.1 | fold induction at 50 µM (K. pneumoniae; planktonic K. pneumoniae, 384-well, cutoff for positive-scoring molecules 3-fold increase, read-out: AK-based Prestwick Library Screening Results: K. pneumoniae (increase in extracellular AK activity)): 1.1 | fold induction at 50 µM ([2]; planktonic A. baumannii, 384-well, cutoff for positive-scoring molecules 3-fold increase, read-out: AK-based Prestwick Library Screening Results: A. baumannii (increase in extracellular AK activity)): 1.1 | fold induction at 50 µM (P. aeruginosa; planktonic P. aeruginosa, 384-well, cutoff for positive-scoring molecules 3-fold increase, read-out: AK-based Prestwick Library Screening Results: P. aeruginosa (increase in extracellular AK activity)): 1.1 | fold induction at 50 µM (E. cloacae; planktonic E. cloacae, 384-well, cutoff for positive-scoring molecules 3-fold increase, read-out: AK-based Prestwick Library Screening Results: E. cloacae (increase in extracellular AK activity)): 1.3 | fold induction at 50 µM (E. coli; planktonic E. coli, 384-well, cutoff for positive-scoring molecules 3-fold increase, read-out: AK-based Prestwick Library Screening Results: E. coli (increase in extracellular AK activity)): 1.3
